The results in this text go back to patent US20110015162A1, “15,16-Methylene-17-hydroxy-19-nor-21-carboxylic acid-steroid Y-lactone derivative, use thereof and medicinal products containing the derivative” (Bayer Schering Pharma Aktiengesellschaft, priority 2007, published 2011).

Like-named read-outs stand apart in the source and are kept apart here.

For assay [1], the target named is T1, androgen receptor (Homo sapiens, UniProt P10275).
T1 sequence (P10275 1-920): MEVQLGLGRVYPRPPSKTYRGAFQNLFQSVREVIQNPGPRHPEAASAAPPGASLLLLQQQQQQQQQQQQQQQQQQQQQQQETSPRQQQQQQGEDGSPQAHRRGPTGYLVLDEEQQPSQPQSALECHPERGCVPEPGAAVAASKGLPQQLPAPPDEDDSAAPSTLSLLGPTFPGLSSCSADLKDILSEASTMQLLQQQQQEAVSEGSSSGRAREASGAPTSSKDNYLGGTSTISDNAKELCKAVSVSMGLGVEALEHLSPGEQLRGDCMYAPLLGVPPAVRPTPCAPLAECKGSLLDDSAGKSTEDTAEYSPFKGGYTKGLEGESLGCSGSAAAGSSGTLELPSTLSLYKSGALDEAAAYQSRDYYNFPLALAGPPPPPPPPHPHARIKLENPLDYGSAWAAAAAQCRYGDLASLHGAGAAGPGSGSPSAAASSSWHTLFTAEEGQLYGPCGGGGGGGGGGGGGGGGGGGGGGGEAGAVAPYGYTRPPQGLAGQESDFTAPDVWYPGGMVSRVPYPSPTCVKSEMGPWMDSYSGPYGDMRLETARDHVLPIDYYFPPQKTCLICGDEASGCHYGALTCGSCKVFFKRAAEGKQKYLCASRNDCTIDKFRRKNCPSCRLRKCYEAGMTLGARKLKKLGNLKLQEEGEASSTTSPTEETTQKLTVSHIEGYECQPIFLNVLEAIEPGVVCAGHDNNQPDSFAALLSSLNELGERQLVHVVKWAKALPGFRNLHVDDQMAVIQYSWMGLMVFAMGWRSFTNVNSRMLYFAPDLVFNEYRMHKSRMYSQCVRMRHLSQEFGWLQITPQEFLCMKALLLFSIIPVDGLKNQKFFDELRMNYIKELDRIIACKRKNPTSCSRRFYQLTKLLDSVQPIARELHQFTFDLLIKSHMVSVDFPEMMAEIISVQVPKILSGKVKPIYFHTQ
Nature of the assay: Androgen receptor binding test. As to conditions: reference substance 3H-testosterone. Also noted: expressed in transfected cells.

Assay [2] deals with T1, androgen receptor. Briefly: Androgenic/antiandrogenic action by transactivation test (PC3 reporter cells). In kind it is cell-based. Also on record: expressed in transfected cells; host or cells: PC3 cells. On the procedure:
The test compounds were added eight hours later, and the cells were incubated with the compounds for 16 hours. The tests were carried out in triplicate. At the end of incubation the medium containing the effector was removed and replaced with lysis buffer. After luciferase assay substrate (Promega, #E1501) had been added, the 96-well plates were then put in a microplate luminometer (Pherastar, BMG Labtech), and the luminescence was measured. The IC50 values were evaluated using software for calculating dose-effect relations.
6. Determination of Androgenic/Antiandrogenic Action by Means of Transactivation Tests:
The androgenic/antiandrogenic action of the test substances was determined as for the transactivation tests described above.
The following modifications were made: In this case reporter cell lines were used (PC3 cells) that express the androgen receptor, and a reporter construct that contains luciferase under the control of a steroid hormone-responsive promoter.
For determination of the antiandrogenic efficacy, 0.05 nM R1881 was added to the cells, in order to achieve almost maximum stimulation of the reporter gene.

The target in assay [3] is T2, mineralocorticoid receptor (Homo sapiens, UniProt P08235).
T2 sequence (P08235 1-984): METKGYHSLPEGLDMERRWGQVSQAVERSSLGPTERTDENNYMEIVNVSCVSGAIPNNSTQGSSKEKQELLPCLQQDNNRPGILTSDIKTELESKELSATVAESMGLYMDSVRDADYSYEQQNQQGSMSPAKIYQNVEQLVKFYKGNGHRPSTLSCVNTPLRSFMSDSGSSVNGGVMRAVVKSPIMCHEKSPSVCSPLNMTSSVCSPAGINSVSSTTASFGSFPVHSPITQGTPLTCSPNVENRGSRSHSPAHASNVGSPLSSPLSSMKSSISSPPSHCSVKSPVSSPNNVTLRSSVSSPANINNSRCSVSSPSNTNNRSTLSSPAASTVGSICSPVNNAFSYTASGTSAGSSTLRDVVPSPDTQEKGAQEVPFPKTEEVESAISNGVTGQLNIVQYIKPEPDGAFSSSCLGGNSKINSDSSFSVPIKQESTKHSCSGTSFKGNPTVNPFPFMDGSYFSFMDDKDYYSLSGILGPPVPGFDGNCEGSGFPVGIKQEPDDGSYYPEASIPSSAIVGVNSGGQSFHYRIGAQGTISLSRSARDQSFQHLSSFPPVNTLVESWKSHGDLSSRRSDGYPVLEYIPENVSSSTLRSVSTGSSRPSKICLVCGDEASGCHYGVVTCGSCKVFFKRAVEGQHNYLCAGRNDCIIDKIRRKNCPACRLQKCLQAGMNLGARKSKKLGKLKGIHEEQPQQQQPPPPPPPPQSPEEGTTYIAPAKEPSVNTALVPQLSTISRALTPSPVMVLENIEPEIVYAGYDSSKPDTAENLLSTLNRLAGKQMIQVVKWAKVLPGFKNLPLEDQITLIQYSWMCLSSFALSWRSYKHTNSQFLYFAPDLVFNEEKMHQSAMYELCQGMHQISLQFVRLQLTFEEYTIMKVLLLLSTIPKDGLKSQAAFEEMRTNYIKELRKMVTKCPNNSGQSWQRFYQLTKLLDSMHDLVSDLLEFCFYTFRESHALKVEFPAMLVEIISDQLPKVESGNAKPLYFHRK
Briefly: Mineralocorticoid receptor binding test. Also noted: made in house; host or cells: Hi5 insect cells (cytosol). To be noted: reference substance 3H-aldosterone, cytosol from MR-expressing insect cells (Hi5). Put shortly:
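Competitive binding measured with cytosol from Hi5 insect cells expressing the receptor. Displacement of ^3H-aldosterone as reference ligand gave the readout.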

Assay [4] deals with T2, mineralocorticoid receptor. Briefly: Antimineralocorticoid action by transactivation test (MDCK reporter cells).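 For Emax: percent inhibition of the aldosterone-stimulated reporter signal.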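 For Mineralocorticoid receptor Antagonism efficacy: percent inhibition of the aldosterone-stimulated reporter signal.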 In kind it is cell-based. Also noted: expressed in transfected cells; host or cells: MDCK cells. As to conditions: for Emax: read-out: Mineralocorticoid receptor Antagonism efficacy. Put shortly:
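MDCK reporter cells expressing human mineralocorticoid receptor, transiently carrying luciferase under a steroid hormone-responsive promoter.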

Setting [5] is: PC-3, read-out: Androgen receptor Agonism efficacy.
Setting [6] is: PC-3, read-out: Androgen receptor Antagonism efficacy.

On to `C=C[C@@H]1CC2=CC(=O)CC[C@@H]2[C@H]2CC[C@@]3(C)[C@@H]([C@H]4C[C@H]4[C@@]34C=CC(=O)O4)[C@@H]21` [Example 16A, 17β-Hydroxy-7α-vinyl-15α,16α-methylene-19-nor-17α-pregna-4;20(Z)-dien-3-one-21-carboxylic acid γ-lactone], for which the “Androgen receptor Competition factor” value at androgen receptor [1] was 2.6. Also, at androgen receptor [2], a half-maximal effect (EC50) was put at 12 nM. The values for the Emax (at androgen receptor [2] (setting [5]); at androgen receptor [2] (setting [6]); in assay [4] (MDCK)) were 62.6%, 5% and 103%, respectively. The “Mineralocorticoid receptor (MR) Competition factor” value (shortened to “Mineralocorticoid receptor”) in assay [3] is reported as 2.0. Moreover, inhibition in assay [4] was half-maximal at 95 nM (IC50).
Regarding `CC[C@]12CC[C@H]3[C@@H]([C@H]4C[C@H]4C4=CC(=O)CC[C@@H]43)[C@@H]1[C@@H]1C[C@@H]1[C@@]21C=CC(=O)O1` [Example 1, 6β,7β;15β,16β-Bismethylene-17β-hydroxy-18-methyl-19-nor-17α-pregna-4,20(Z)-dien-3-one-21-carboxylic acid γ-lactone], at androgen receptor [1], the “Androgen receptor Competition factor” value is 30.6. The EC50 at androgen receptor [2] came out at 100 nM. In addition, the Emax was 46.3% on androgen receptor [2] (setting [5]), 5% at androgen receptor [2] (setting [6]) and 79.5% in assay [4] (MDCK). Moreover, the “Mineralocorticoid receptor” value in assay [3] worked out at 1.6. Moreover, in assay [4], 10 nM corresponded to half-maximal inhibition (IC50).
Regarding `C[C@]12CC[C@H]3[C@@H](CC4(CC4)C4=CC(=O)CC[C@@H]43)[C@@H]1[C@@H]1C[C@@H]1[C@@]21C=CC(=O)O1` [Example 22, 6,6-(1,2-Ethanediyl)-17β-hydroxy-15β,16β-methylene-19-nor-17α-pregna-4,20(Z)dien-3-one-21-carboxylic acid γ-lactone], the “Androgen receptor Competition factor” value at androgen receptor [1] is on record as 2.0. At androgen receptor [2], this molecule returned an EC50 of 1.7 nM. Further, the Emax on androgen receptor [2] (setting [5]) came to 98.6%; at androgen receptor [2] (setting [6]), 5%; in assay [4] (MDCK), 91.2%. In assay [3], the “Mineralocorticoid receptor” value came to 0.8. For the same molecule, in assay [4], the IC50 came to 49 nM.
In the case of `CC[C@]12CC[C@H]3[C@@H](C[C@@H](CO)C4=CC(=O)CC[C@@H]43)[C@@H]1[C@@H]1C[C@@H]1[C@@]21C=CC(=O)O1` [Example 10, 17β-Hydroxy-6β-hydroxymethylene-18-methyl-15β,16β-methylene-19-nor-17α-pregna-4,20(Z)-dien-3-one-21-carboxylic acid γ-lactone], the “Androgen receptor Competition factor” value on androgen receptor [1] came out at 1000.0. Also, a half-maximal response on androgen receptor [2] (EC50) required 130 nM. The IC50 stood at 160 nM against androgen receptor [2] and 110 nM in assay [4] (MDCK cells, with 1 nM aldosterone, read-out: Mineralocorticoid receptor Antagonism IC50). For the same molecule, the Emax on androgen receptor [2] (setting [5]) was found to be 17.9%; at androgen receptor [2] (setting [6]) it was 15.6%; in assay [4] (MDCK cells, with 1 nM aldosterone), 92.7%. In assay [3], the “Mineralocorticoid receptor” value is given as 2.7.
For the molecule `C=C[C@@H]1CC2=CC(=O)CC[C@@H]2[C@H]2CC[C@@]3(C)[C@@H]([C@@H]4C[C@@H]4[C@@]34C=CC(=O)O4)[C@@H]21` [Example 25A, 17β-Hydroxy-15β,16β-methylene-7α-vinyl-19-nor-17α-pregna-4,20(Z)-dien-3-one-21-carboxylic acid γ-lactone], the “Androgen receptor Competition factor” value on androgen receptor [1] is on record as 1.4. Also, the EC50 on androgen receptor [2] came out at 1.83 nM. In addition, the Emax was determined as 73.3% at androgen receptor [2] (setting [5]), 5% on androgen receptor [2] (setting [6]) and 84.1% in assay [4] (MDCK). In assay [3], the “Mineralocorticoid receptor” value stood at 9.4. The midpoint of inhibition in assay [4], the IC50, lay at 910 nM.
For `C[C@]12CC[C@H]3[C@@H](CCC4=CC(=O)CC[C@@H]43)[C@@H]1[C@H]1C[C@H]1[C@@]21C=CC(=O)O1` [Example 12, 17β-Hydroxy-15α,16α-methylene-19-nor-17α-pregna-4,20(Z)-dien-3-one-21-carboxylic acid γ-lactone], on androgen receptor [1], the “Androgen receptor Competition factor” value came out at 16.5. The molecule also came in with an EC50 on androgen receptor [2] of 130 nM. Moreover, the IC50 is 86 nM on androgen receptor [2] and 100 nM in assay [4]. Moreover, the Emax on androgen receptor [2] (setting [5]) worked out at 14.9%; at androgen receptor [2] (setting [6]) it was 61.7%; in assay [4] (MDCK), 71.4%. Besides, the “Mineralocorticoid receptor” value in assay [3] is reported as 2.9.
With `C[C@]12CC[C@H]3[C@H]([C@@H]1[C@H]1C[C@H]1[C@@]21C=CC(=O)O1)[C@H](C1CC1)CC1=CC(=O)CC[C@@H]13` [Example 17A, 17β-Hydroxy-7α-cyclopropyl-15α,16α-methylene-19-nor-17α-pregna-4,20(Z)-dien-3-one-21-carboxylic acid γ-lactone], the “Androgen receptor Competition factor” value at androgen receptor [1] turned out to be 5.2. At androgen receptor [2], this molecule came in with an EC50 of 23 nM. For the same molecule, the IC50 against androgen receptor [2] was determined as 11 nM; in assay [4], 89 nM. For the same molecule, the Emax on androgen receptor [2] (setting [5]) was found to be 40.8%; at androgen receptor [2] (setting [6]), 33.7%; in assay [4] (MDCK) it was 115%. Moreover, the “Mineralocorticoid receptor” value in assay [3] was 2.6.
Consider `C[C@@H]1CC2=CC(=O)CC[C@@H]2[C@H]2CC[C@@]3(C)[C@@H]([C@H]4C[C@H]4[C@@]34C=CC(=O)O4)[C@@H]21` [Example 14A, 17β-Hydroxy-7α-methyl-15α,16α-methylene-19-nor-17α-pregna-4,20(Z)-dien-3-one-21-carboxylic acid γ-lactone], for which the “Androgen receptor Competition factor” value at androgen receptor [1] came out at 2.3. In addition, the EC50 on androgen receptor [2] came to 13 nM. In addition, the IC50 against androgen receptor [2] came out at 1.5 nM; in assay [4], 3 nM. Besides, the Emax on androgen receptor [2] (setting [5]) was found to be 41.8%; on androgen receptor [2] (setting [6]), 21%; in assay [4] (MDCK) it was 83%. The “Mineralocorticoid receptor” value in assay [3] is given as 1.3.

What is called EC50 is the concentration at which the effect is half-maximal. One may read the IC50 as the concentration at which inhibition is half-maximal.
